Patent US12139477B2, “Compounds, salts thereof and methods for treatment of diseases” (ACADIA PHARMACEUTICALS INC., priority 2017, dated 2024)

Legend:
[1] = target: 5HT2A (Homo sapiens, UniProt P28223); test: Receptor Selection and Amplification (R-SAT) functional assay; assay type: cell-based; design: expressed in transfected cells; host or cells: NIH3T3 cells, pSI mammalian expression vector; details: NIH3T3 cells; Ki from IC50 by Cheng and Prussoff; read-out: 5-HT2a (pKi) (R-SAT) (converted)
Sequence of 5HT2A (P28223 whole entry): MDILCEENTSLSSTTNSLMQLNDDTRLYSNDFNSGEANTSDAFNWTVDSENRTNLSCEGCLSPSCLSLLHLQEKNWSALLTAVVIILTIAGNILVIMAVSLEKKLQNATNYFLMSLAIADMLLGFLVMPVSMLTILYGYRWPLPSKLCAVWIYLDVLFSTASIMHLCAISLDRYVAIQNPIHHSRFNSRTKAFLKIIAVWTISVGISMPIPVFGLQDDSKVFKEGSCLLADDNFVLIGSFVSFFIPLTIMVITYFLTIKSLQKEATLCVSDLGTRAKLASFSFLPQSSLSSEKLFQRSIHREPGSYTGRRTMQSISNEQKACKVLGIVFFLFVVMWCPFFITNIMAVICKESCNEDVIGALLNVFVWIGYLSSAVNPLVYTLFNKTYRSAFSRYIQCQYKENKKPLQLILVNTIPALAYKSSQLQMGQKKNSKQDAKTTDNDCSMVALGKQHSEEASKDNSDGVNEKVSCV
From the text: Receptor Selection and Amplification (R-SAT) Assays. […] The IC50 determined in the RSAT assay was converted into a Ki value using the method of Cheng and Prussoff, Biochem Pharmacol., 1973 Dec. 1; 22(23):3099-108. pKi is the negative of the log(Ki).

[2] = target: T1, Nav1.5 sodium ion channel (alpha subunit) (Homo sapiens, UniProt Q14524); test: NaV1.5 whole cell recordings, HEK293 (AVIVA; for ACP-201, ACP-203 and ACP-204); assay type: cell-based; details: manual patch clamp; step to 0 mV; AVIVA method for ACP-201, ACP-203, ACP-204; read-out: NaV 1.5 IC50
T1 construct: host or cells: HEK293 cells
T1 sequence (Q14524 whole entry): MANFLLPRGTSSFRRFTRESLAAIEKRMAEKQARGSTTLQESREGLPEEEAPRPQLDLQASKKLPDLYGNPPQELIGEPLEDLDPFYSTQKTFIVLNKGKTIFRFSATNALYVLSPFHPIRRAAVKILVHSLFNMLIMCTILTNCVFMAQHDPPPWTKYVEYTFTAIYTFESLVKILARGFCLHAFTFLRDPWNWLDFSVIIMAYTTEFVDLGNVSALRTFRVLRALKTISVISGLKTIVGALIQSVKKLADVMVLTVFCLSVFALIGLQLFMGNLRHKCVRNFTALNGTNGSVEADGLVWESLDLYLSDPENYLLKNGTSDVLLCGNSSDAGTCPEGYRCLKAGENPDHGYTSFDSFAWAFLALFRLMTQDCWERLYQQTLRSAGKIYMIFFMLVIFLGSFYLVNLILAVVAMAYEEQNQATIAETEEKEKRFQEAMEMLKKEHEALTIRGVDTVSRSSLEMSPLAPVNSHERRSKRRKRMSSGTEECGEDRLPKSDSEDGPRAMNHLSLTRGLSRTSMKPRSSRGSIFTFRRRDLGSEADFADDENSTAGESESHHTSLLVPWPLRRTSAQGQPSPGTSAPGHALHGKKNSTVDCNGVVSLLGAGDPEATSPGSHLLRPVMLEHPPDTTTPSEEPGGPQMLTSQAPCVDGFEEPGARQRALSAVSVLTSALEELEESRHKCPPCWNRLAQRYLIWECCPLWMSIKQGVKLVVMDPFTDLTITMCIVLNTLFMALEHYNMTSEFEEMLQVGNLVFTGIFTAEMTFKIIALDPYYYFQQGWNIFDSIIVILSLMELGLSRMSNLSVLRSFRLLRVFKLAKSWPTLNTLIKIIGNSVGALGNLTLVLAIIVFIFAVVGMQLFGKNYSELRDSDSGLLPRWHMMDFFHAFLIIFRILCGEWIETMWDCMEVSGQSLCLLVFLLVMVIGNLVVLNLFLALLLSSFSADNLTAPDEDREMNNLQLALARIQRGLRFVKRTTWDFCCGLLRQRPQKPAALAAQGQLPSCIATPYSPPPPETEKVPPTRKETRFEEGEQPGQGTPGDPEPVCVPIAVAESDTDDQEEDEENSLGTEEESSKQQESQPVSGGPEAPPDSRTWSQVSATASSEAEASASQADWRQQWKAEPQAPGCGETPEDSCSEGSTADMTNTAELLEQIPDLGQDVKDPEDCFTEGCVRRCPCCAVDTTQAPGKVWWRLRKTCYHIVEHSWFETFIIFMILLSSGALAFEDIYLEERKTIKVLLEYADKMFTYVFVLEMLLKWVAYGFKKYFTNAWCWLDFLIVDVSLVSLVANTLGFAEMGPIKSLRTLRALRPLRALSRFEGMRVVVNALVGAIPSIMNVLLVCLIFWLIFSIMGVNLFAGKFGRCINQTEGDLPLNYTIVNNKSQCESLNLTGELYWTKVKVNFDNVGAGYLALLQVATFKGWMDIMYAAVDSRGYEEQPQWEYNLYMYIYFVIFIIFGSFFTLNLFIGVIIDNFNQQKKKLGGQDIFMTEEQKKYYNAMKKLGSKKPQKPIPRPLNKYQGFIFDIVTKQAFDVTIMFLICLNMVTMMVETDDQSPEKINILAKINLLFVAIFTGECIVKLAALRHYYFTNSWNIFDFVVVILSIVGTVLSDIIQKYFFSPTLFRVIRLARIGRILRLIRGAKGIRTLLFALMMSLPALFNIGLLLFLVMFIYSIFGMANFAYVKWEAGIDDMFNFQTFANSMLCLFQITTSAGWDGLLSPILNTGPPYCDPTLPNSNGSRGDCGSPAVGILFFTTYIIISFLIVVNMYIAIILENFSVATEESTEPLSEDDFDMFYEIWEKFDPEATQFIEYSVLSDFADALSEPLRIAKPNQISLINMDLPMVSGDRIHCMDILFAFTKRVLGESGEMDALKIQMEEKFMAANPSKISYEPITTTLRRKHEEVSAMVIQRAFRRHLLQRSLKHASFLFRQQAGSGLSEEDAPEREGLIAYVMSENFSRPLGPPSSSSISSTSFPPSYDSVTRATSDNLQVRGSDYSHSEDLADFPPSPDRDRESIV
Method: NaV1.5 methods (for ACP-201, ACP-203 and ACP-204): These experiments were carried out at AVIVA Biosciences Corporation, 6330 Nancy Ridge Drive, Suite 103, San Diego, CA 92121.
Cells: HEK293 cells transfected with Nav1.5 sodium ion channel (alpha subunit) were selected for this study. Cells were cultured in DMEM/F12 containing 10% FBS, 500 μg/mL G418 and 1% penicillin/streptomycin. Trypsin (0.05%) was utilized for cell harvesting.
External Solution: 90 mM NaCl; 50 mM TEA; 10 mM HEPES; 10 mM glucose; 4 mM KCl; 2 mM CaCl2); 305-315 mOsm; pH 7.4 (adjusted with 5M NaOH).
Internal Solution: 140 mM CsF; 10 mM NaCl; 1 mM MgCl2; 10 mM HEPES; 5 mM EGTA; 295-305 mOsm; pH 7.4 (adjusted with 1M NaOH).
Electrophysiology: All whole cell recordings were performed using PX 7000A (Axon Instruments) with AVIVA's […] technology. To achieve stable recordings, cells were voltage clamped at a holding potential 20 mV more negative than steady state half inactivation potential (Vh=V1/2−20 mV). V1/2 was determined by a pre-step from −130 mV to −40 MV for 1000 ms followed by a −10 mV step. V1/2 was determined independently for each cell to correct for both electrode potential and liquid junction potential offsets.
Test Article Handling and Dilutions: All test articles were prepared from 10 mM DMSO stock solutions. Solutions were mixed by sonication for 20 min, followed by vigorous vortexing. Prior to testing, compounds were diluted to test concentrations in glass vials using External Solution. Dilutions were prepared no longer than 20 min prior to use.
Electrophysiology Procedures: After achieving whole cell configuration, cells were monitored for 90 s to assess stability and then washed with External Solution for 66 s. for each cell achieving whole-cell access, an IV curve and steady state inactivation curve was measured. […] Whole cell parameters were monitored throughout the recoding procedure and corrected for any possible access resistance or input capacitance change (whole-cell compensation). […]

Ki [1]	SMILES	IC50 [2]
1.26 nM	CC(C)COc1ccc(CNC(=O)N(Cc2ccc(F)cc2F)C2CCN(C)CC2)cc1 [Example 3, 1-[(2,4-difluorophenyl)methyl]-1-(1-methylpiperidin-4-yl)-3-{[4-(2-methylpropoxy)phenyl]methyl}urea]	4200 nM
1 nM	CC(C)Oc1ccc(CNC(=O)N(Cc2ccc(F)cc2F)C2CCN(C)CC2)cc1 [Example 5, 1-[(2,4-difluorophenyl)methyl]-1-(1-methylpiperidin-4-yl)-3-{[4-(propan-2-yloxy)phenyl]methyl}urea]	> 10000 nM
0.398 nM	CN1CCC(N(Cc2ccc(F)cc2F)C(=O)NCc2ccc(OC3CC3)cc2)CC1 [Example 17, 3-[(4-cyclopropoxyphenyl)methyl]-1-[(2,4-difluorophenyl)methyl]-1-(1-methylpiperidin-4-yl)urea]	> 10000 nM
